Series [1] in a line: in vitro. The conditions noted are these: human.
Series [2] concerns S. aureus ATCC 33591. The conditions noted are these: ATCC 33591, 24 h, pH 7.4.
The test system of series [3] is P. aeruginosa ATCC 27853. In kind it is cell-based, Pseudomonas aeruginosa. The settings on record: pH 7.4.
The subject of series [4] is preformed biofilms of S. aureus ATCC 33591. The series is described as follows: Biofilm treatment assay on preformed (24-h old) biofilms, CFU counting, alone and with EDTA. In kind it is cell-based, Staphylococcus aureus. The conditions noted are these: concentrations up to 120 μM, CFU counting. The protocol: The activity of TB, TB_L1FK, and TB_KKG6A against preformed (24-h old) biofilms of S. aureus and P. aeruginosa was also investigated. Briefly, biofilms were allowed to form for 24 h in flat-bottom 96-well microplates in the absence of antimicrobial compounds. Established biofilms were then washed three times with PBS in order to remove non-adherent cells and incubated in fresh BPM with different concentrations of the three peptides (from 15 to 120 μM). After 24 h of incubation, the viability of biofilm-associated cells was evaluated by CFU counting. For this purpose, biofilms were washed three times with PBS and bacterial cells were detached from the surface of the wells with a pipette tip, vigorously vortexed and plated in serial dilutions on TSA.
TB_L1FK and TB_KKG6A were combined with EDTA in order to enhance their activity against preformed biofilms of S. aureus and P. aeruginosa. […] Following incubation, the antibiofilm effect was evaluated in terms of number of biofilm-associated viable cells as previously described.
Figure 4 Activity of TB_L1FK and TB_KKG6A, used alone and in combination with EDTA, against preformed (24-h old) biofilms of S. aureus ATCC 33591 (A,B) and P. aeruginosa ATCC 27853 (C,D). The antibiofilm activity of the peptides, EDTA and the peptide-EDTA combinations was evaluated by CFU counting after 24 h of incubation. […]

For series [5], the system named is S. aureus ATCC 33591. In kind it is cell-based, Staphylococcus aureus. The conditions noted are these: pH 7.4.
Series [6] deals with P. aeruginosa ATCC 27853 biofilm formation.
The subject of series [7] is P. aeruginosa ATCC 27853. The conditions noted are these: ATCC 27853, 24 h, pH 7.4.
Series [8] concerns S. epidermidis ATCC 35984. The settings on record: ATCC 35984, 24 h, pH 7.4.
For series [9], the system named is K. pneumoniae ATCC BAA-1706. The settings on record: ATCC BAA-1706, 24 h, pH 7.4.
The nature of series [10]: in vitro. The conditions noted are these: human. The source holds these as a separate data set.
The test system of series [11] is human red blood cells (RBCs). The settings on record: concentrations up to 96 μM, 1 h, 37°C.
Experimental: Hemolytic activity of TB and its analogs was tested against human red blood cells (RBCs) as previously described (Tavanti et al., [2011]). Briefly, peripheral blood obtained from healthy donors was centrifuged (1,000 × g for 10 min, 4°C) and washed three times with PBS (Euroclone, Milan, Italy). A suspension of RBCs (4%, v/v) was mixed with various concentrations of the peptides (from 12 to 96 μM) into a round-bottom polystyrene 96-well microplate (Corning Costar). RBCs suspended in PBS alone were used as negative control (0% hemolysis), while cells lysed with 0.1% Triton X-100 were taken as positive control (100% hemolysis). The microplate was incubated for 1 h at 37°C and then centrifuged at 1,000 × g for 20 min, 4°C. Supernatants were transferred to a new plate and the optical density at 450 nm (OD450) was measured by means of a microplate reader. The hemolytic activity was quantified according to the following formula: hemolysis (%) = [(OD peptide – OD negative control)/(OD positive control – OD negative control)] × 100.
The hemolytic activity was evaluated by the spectrophotometric determination of hemoglobin released from erythrocytes. PBS (0% hemolysis) and Triton X-100 (100% hemolysis) were used as controls. Hemolysis values ≤ 10% (dashed line) are considered to be non-hemolytic (Amin and Dannenfelser, [2006]). […]

Marks after values point to notes of the source that are not given here. No end group written: not given here.

For orientation: viability means a per cent measure of how many cells are alive, often set against a control. A word on the MBC: it is the smallest concentration meeting the test's criterion for killing. Read a low MBC as more potent killing.

As for LLPIVGNLLKSLL-NH2 [TB, Temporin 1Tb], the viability in “in vitro [1]” and in “in vitro [10]” was around 90% throughout. Moreover, the minimum bactericidal concentration (MBC) in the series on S. aureus ATCC 33591 [2] is 12^a μM; in the series on P. aeruginosa ATCC 27853 [7] it was 48 µM; in [8] it was 6 µM; in series [9] it was 48 µM. The “Time to bactericidal effect” value in the series with P. aeruginosa ATCC 27853 [3] worked out at 15 min. Also, the “Antibiofilm activity on preformed biofilms” value in series [4] is listed as “did not exert a considerable antibiofilm activity”. Further, the “Time to bactericidal effect (reduction of at least 3 Log10 in viable bacteria)” value in the series on S. aureus ATCC 33591 [5] is given as “approximately 90 min”. Also, in [6], the “Inhibitory activity on forming biofilms” value was “no inhibitory activity”. In series [11], the Hemolytic effect result is recorded as “no hemolytic effect”.

For the origin of these results see publication PMC5387044, “Analogs of the Frog-skin Antimicrobial Peptide Temporin 1Tb Exhibit a Wider Spectrum of Activity and a Stronger Antibiofilm Potential as Compared to the Parental Peptide” (Frontiers in Chemistry, 2017).
